Measurements published in patent US20160244437A1, “SUBSTITUTED PHENYLALANINE DERIVATIVES” (BAYER PHARMA AKTIENGESELLSCHAFT, priority 2013, published 2016).
Counter-ions that a name gives are not always drawn.

Legend:
[1] = target: T1, human factor XIa (Homo sapiens, UniProt P03951); test: Measurement of FXIa inhibition (fluorogenic peptide substrate Boc-Glu(OBzl)-Ala-Arg-AMC); type: biochemical; conditions: factor XIa from Kordia 0.45 nM, 15 min pre-incubation, 30 min at 22° C., fluorescence
T1 construct: purchased Kordia

[2] = system: human and animal plasma; test: Determination of anticoagulatory activity: activated partial thromboplastin time (aPTT) in plasma; conditions: concentration of test substance which brings about a 1.5-fold extension of the aPTT; plasma in vitro, C.K. Prest kit
Protocol: The anticoagulatory activity of the test substances is determined in vitro in human and animal plasma (for example mouse, rat, rabbit, pig and dog plasma). To this end, blood is drawn off in a mixing ratio of sodium citrate/blood of 1:9 using a 0.11 molar sodium citrate solution as receiver. Immediately after the blood has been drawn off, it is mixed thoroughly and centrifuged at about 4000 g for 15 minutes. The supernatant is pipetted off.
The activated partial thromboplastin time (aPTT) is determined in the presence of varying concentrations of test substance or the corresponding solvent using a commercial test kit (C.K. Prest from Diagnostica Stago). The test compounds are incubated with the plasma and the PTT reagent (cephalin, kaolin) at 37° C. for 3 minutes. Coagulation is then started by addition of a 25 mM aqueous calcium chloride solution, and the time when coagulation occurs is determined. The concentration of test substance which brings about a 1.5-fold extension of the aPTT is determined.

T1 sequence (P03951 388-625 limits assumed): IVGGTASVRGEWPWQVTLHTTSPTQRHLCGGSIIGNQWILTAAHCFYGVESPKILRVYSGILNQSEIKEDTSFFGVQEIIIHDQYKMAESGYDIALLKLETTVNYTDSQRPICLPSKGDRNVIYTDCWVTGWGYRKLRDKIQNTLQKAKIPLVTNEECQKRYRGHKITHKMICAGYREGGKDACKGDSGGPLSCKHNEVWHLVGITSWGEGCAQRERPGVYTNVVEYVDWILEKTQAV
T1 sequence (P03951 19-387 partner limits assumed): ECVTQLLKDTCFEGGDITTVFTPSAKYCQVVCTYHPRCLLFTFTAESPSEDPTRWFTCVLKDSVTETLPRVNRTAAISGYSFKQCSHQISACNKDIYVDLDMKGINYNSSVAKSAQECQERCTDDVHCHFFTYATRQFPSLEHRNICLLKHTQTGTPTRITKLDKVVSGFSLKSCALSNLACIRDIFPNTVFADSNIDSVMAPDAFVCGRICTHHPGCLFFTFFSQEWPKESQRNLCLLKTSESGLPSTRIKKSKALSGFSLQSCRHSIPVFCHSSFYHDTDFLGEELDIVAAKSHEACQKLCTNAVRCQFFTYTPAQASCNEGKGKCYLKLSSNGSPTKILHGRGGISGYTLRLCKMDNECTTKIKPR

Row | Structure (SMILES) | IC50 [1] | aPTT [2]
1 | CN1CCN(C(=O)c2cccc(-c3cccc(C[C@H](NC(=O)[C@H]4CC[C@H](CN)CC4)C(=O)Nc4ccc(-c5nnc(Cl)[nH]5)cc4)c3)c2)CC1 [Example 24, trans-4-(Aminomethyl)-N-[(2S)-1-{[4-(3-chloro-4H-1,2,4-triazol-5-yl)phenyl]amino}-3-{3′-[(4-methylpiperazin-1-yl)carbonyl]biphenyl-3-yl}-1-oxopropan-2-yl]cyclohexanecarboxamide hydrochloride] | 4.3 nM | 0.15 µmol/L
2 | CN1CCN(C(=O)c2ccc(-c3cccc(C[C@H](NC(=O)[C@H]4CC[C@H](CN)CC4)C(=O)Nc4ccc(-c5nnc(Cl)[nH]5)cc4)c3)cc2)CC1 [Example 27, trans-4-(Aminomethyl)-N-[(2S)-1-{[4-(3-chloro-4H-1,2,4-triazol-5-yl)phenyl]amino}-3-{4′-[(4-methylpiperazin-1-yl)carbonyl]biphenyl-3-yl}-1-oxopropan-2-yl]cyclohexanecarboxamide hydrochloride] | 4.7 nM | 0.3 µmol/L
3 | NC[C@H]1CC[C@H](C(=O)N[C@@H](Cc2cccc(-c3cccc(C(=O)NCCN4CCOCC4)c3)c2)C(=O)Nc2ccc(-c3nnn[nH]3)cc2)CC1 [Example 29, 3′-[(2S)-2-({[trans-4-(Aminomethyl)cyclohexyl]carbonyl}amino)-3-oxo-3-{[4-(1H-tetrazol-5-yl)phenyl]amino}propyl]-N-[2-(morpholin-4-yl)ethyl]biphenyl-3-carboxamide hydrochloride] | 5.5 nM | 0.37 µmol/L
4 | CC(C)N1CCC(NC(=O)c2cccc(-c3cccc(C[C@H](NC(=O)[C@H]4CC[C@H](CN)CC4)C(=O)Nc4ccc(-c5nnc(Cl)[nH]5)cc4)c3)c2)CC1 [Example 30, 3′-[(2S)-2-({[trans-4-(Aminomethyl)cyclohexyl]carbonyl}amino)-3-{[4-(3-chloro-4H-1,2,4-triazol-5-yl)phenyl]amino}-3-oxopropyl]-N-[1-(propan-2-yl)piperidin-4-yl]biphenyl-3-carboxamide hydrochloride] | 5.8 nM | 0.34 µmol/L
5 | CN1CCN(C(=O)c2cccc(-c3cccc(C[C@H](NC(=O)[C@H]4CC[C@H](CN)CC4)C(=O)Nc4ccc(-c5nnn[nH]5)cc4)c3)c2)CC1 [Example 31, trans-4-(Aminomethyl)-N-[(2S)-3-{3′-[(4-methylpiperazin-1-yl)carbonyl]biphenyl-3-yl}-1-oxo-1-{[4-(1H-tetrazol-5-yl)phenyl]amino}propan-2-yl]cyclohexanecarboxamide hydrochloride] | 7 nM | 0.36 µmol/L
6 | CC(C)N1CCC(NC(=O)c2cccc(-c3cccc(C[C@H](NC(=O)[C@H]4CC[C@H](CN)CC4)C(=O)Nc4ccc(-c5nnn[nH]5)cc4)c3)c2)CC1 [Example 32, 3′-[(2S)-2-({[trans-4-(Aminomethyl)cyclohexyl]carbonyl}amino)-3-oxo-3-{[4-(1H-tetrazol-5-yl)phenyl]amino}propyl]-N-[1-(propan-2-yl)piperidin-4-yl]biphenyl-3-carboxamide hydrochloride] | 6.8 nM | 0.18 µmol/L
7 | Cc1cc(C(=O)NC2C3CNCC32)ccc1-c1cccc(C[C@H](NC(=O)C2CCC(CN)CC2)C(=O)Nc2ccc(-c3nnn[nH]3)cc2)c1 (stereo partly drawn) [Example 33, 3′-[(2S)-2-({[trans-4-(Aminomethyl)cyclohexyl]carbonyl}amino)-3-oxo-3-{[4-(1H-tetrazol-5-yl)phenyl]amino}propyl]-N-(3-azabicyclo[3.1.0]hex-6-yl)-2-methylbiphenyl-4-carboxamide hydrochloride] | 7.6 nM | 0.08 µmol/L
8 | Cc1ccc(S(=O)(=O)N2CCCC2)cc1-c1cccc(C[C@H](NC(=O)[C@H]2CC[C@H](CN)CC2)C(=O)Nc2ccc(-c3noc(=O)[nH]3)cc2)c1 [Example 36, trans-4-(Aminomethyl)-N-[(2S)-3-[2′-methyl-5′-(pyrrolidin-1-ylsulphonyl)biphenyl-3-yl]-1-oxo-1-{[4-(5-oxo-4,5-dihydro-1,2,4-oxadiazol-3-yl)phenyl]amino}propan-2-yl]cyclohexanecarboxamide hydrochloride] | 2.2 nM | 0.12 µmol/L
9 | NC[C@H]1CC[C@H](C(=O)N[C@@H](Cc2cccc(-c3cc(C(N)=O)ccc3Cl)c2)C(=O)Nc2ccc(-c3nnn[nH]3)cc2)CC1 [Example 38, 3′-[(2S)-2-({[trans-4-(Aminomethyl)cyclohexyl]carbonyl}amino)-3-oxo-3-{[4-(1H-tetrazol-5-yl)phenyl]amino}propyl]-6-chlorobiphenyl-3-carboxamide hydrochloride] | 4.8 nM | 0.2 µmol/L
10 | Cc1ccc(S(=O)(=O)N(C)C)cc1-c1cccc(C[C@H](NC(=O)[C@H]2CC[C@H](CN)CC2)C(=O)Nc2ccc3[nH]c(=O)[nH]c3c2)c1 [Example 44, trans-4-(Aminomethyl)-N-{(2S)-3-[5′-(dimethylsulphamoyl)-2′-methylbiphenyl-3-yl]-1-oxo-1-[(2-oxo-2,3-dihydro-1H-benzimidazol-5-yl)amino]propan-2-yl}cyclohexanecarboxamide hydrochloride] | 13 nM | 0.28 µmol/L
11 | CON(C)C(=O)c1ccc(F)c(-c2cccc(C[C@H](NC(=O)[C@H]3CC[C@H](CN)CC3)C(=O)Nc3ccc(-c4nnn[nH]4)cc3)c2)c1 [Example 45, 3′-[(2S)-2-({[trans-4-(Aminomethyl)cyclohexyl]carbonyl}amino)-3-oxo-3-{[4-(1H-tetrazol-5-yl)phenyl]amino}propyl]-6-fluoro-N-methoxy-N-methylbiphenyl-3-carboxamide hydrochloride] | 5.8 nM | 0.3 µmol/L

Further lines, with some results ahead:

Row | IC50 [1] | Structure (SMILES) | aPTT [2]
12 | 8.6 nM | CCN(CC)CCNC(=O)c1cccc(-c2cccc(C[C@H](NC(=O)[C@H]3CC[C@H](CN)CC3)C(=O)Nc3ccc(-c4nnn[nH]4)cc3)c2)c1 [Example 34, 3′-[(2S)-2-({[trans-4-(Aminomethyl)cyclohexyl]carbonyl}amino)-3-oxo-3-{[4-(1H-tetrazol-5-yl)phenyl]amino}propyl]-N-[2-(diethylamino)ethyl]biphenyl-3-carboxamide hydrochloride] | 0.26 µmol/L
13 | 5.6 nM | NC[C@H]1CC[C@H](C(=O)N[C@@H](Cc2cccc(-c3ccc(C(=O)NCCN4CCCCC4)cc3)c2)C(=O)Nc2ccc(-c3nnn[nH]3)cc2)CC1 [Example 37, 3′-[(2S)-2-({[trans-4-(Aminomethyl)cyclohexyl]carbonyl}amino)-3-oxo-3-{[4-(1H-tetrazol-5-yl)phenyl]amino}propyl]-N-[2-(piperidin-1-yl)ethyl]biphenyl-4-carboxamide hydrochloride] | 0.19 µmol/L
14 | 8.9 nM | CN(C)CCNC(=O)c1cccc(-c2cccc(C[C@H](NC(=O)[C@H]3CC[C@H](CN)CC3)C(=O)Nc3ccc(-c4nnn[nH]4)cc3)c2)c1 [Example 39, 3′-[(2S)-2-({[trans-4-(Aminomethyl)cyclohexyl]carbonyl}amino)-3-oxo-3-{[4-(1H-tetrazol-5-yl)phenyl]amino}propyl]-N-[2-(dimethylamino)ethyl]biphenyl-3-carboxamide hydrochloride] | 0.22 µmol/L
15 | 8.3 nM | CCN(CC)CCNC(=O)c1cccc(-c2cccc(C[C@H](NC(=O)[C@H]3CC[C@H](CN)CC3)C(=O)Nc3ccc(-c4nnc(Cl)[nH]4)cc3)c2)c1 [Example 40, 3′-[(2S)-2-({[trans-4-(Aminomethyl)cyclohexyl]carbonyl}amino)-3-{[4-(3-chloro-4H-1,2,4-triazol-5-yl)phenyl]amino}-3-oxopropyl]-N-[2-(diethylamino)ethyl]biphenyl-3-carboxamide hydrochloride] | 0.19 µmol/L
16 | 8.4 nM | NC[C@H]1CC[C@H](C(=O)N[C@@H](Cc2cccc(-c3ccc(C(=O)NCCN4CCCC4)cc3)c2)C(=O)Nc2ccc(-c3nnn[nH]3)cc2)CC1 [Example 41, 3′-[(2S)-2-({[trans-4-(Aminomethyl)cyclohexyl]carbonyl}amino)-3-oxo-3-{[4-(1H-tetrazol-5-yl)phenyl]amino}propyl]-N-[2-(pyrrolidin-1-yl)ethyl]biphenyl-4-carboxamide hydrochloride] | 0.32 µmol/L
17 | 11 nM | CCN(CC)CCNC(=O)c1ccc(-c2cccc(C[C@H](NC(=O)[C@H]3CC[C@H](CN)CC3)C(=O)Nc3ccc(-c4nnn[nH]4)cc3)c2)cc1 [Example 42, 3′-[(2S)-2-({[trans-4-(Aminomethyl)cyclohexyl]carbonyl}amino)-3-oxo-3-{[4-(1H-tetrazol-5-yl)phenyl]amino}propyl]-N-[2-(diethylamino)ethyl]biphenyl-4-carboxamide hydrochloride] | 0.35 µmol/L
18 | 5.2 nM | CN(C)C(=O)c1cccc(-c2cccc(C[C@H](NC(=O)[C@H]3CC[C@H](CN)CC3)C(=O)Nc3ccc(-c4nnn[nH]4)cc3)c2)c1 [Example 43, 3′-[(2S)-2-({[trans-4-(Aminomethyl)cyclohexyl]carbonyl}amino)-3-oxo-3-{[4-(1H-tetrazol-5-yl)phenyl]amino}propyl]-N,N-dimethylbiphenyl-3-carboxamide hydrochloride] | 0.26 µmol/L
19 | 7.9 nM | CN1CCN(C(=O)c2ccc(-c3cccc(C[C@H](NC(=O)[C@H]4CC[C@H](CN)CC4)C(=O)Nc4ccc(-c5nnn[nH]5)cc4)c3)cc2)CC1 [Example 46, trans-4-(Aminomethyl)-N-[(2S)-3-{4′-[(4-methylpiperazin-1-yl)carbonyl]biphenyl-3-yl}-1-oxo-1-{[4-(1H-tetrazol-5-yl)phenyl]amino}propan-2-yl]cyclohexanecarboxamide hydrochloride] | 0.32 µmol/L
